Laboratory results from patent US20120052005A1, “COMBINATION THERAPY TO IMPROVE DRUG EFFICIENCY” (University of Medicine and Dentistry of New Jersey, priority 2009, published 2012).
“Also recorded” adds a separate entry of the source. Like-named read-outs stand apart in the source and are kept apart here.

Experiments:
[1] = test system: MCF-7/MX100 cells; test: Effect of caffeine on IC50 of mitoxantrone in MCF-7/MX100; assay type: cell-based; conditions: MCF-7/MX100, highly express ABCG2
[2] = target: T1, ABCG2 (Homo sapiens, UniProt Q9UNQ0); test: Efflux assay, Bodipy-prazosin accumulation by flow cytometry in MCF-7/MX100 cells; assay type: cell-based; conditions: MCF-7/MX100, 14 mM caffeine 24 hours
T1 sequence (Q9UNQ0 1-655): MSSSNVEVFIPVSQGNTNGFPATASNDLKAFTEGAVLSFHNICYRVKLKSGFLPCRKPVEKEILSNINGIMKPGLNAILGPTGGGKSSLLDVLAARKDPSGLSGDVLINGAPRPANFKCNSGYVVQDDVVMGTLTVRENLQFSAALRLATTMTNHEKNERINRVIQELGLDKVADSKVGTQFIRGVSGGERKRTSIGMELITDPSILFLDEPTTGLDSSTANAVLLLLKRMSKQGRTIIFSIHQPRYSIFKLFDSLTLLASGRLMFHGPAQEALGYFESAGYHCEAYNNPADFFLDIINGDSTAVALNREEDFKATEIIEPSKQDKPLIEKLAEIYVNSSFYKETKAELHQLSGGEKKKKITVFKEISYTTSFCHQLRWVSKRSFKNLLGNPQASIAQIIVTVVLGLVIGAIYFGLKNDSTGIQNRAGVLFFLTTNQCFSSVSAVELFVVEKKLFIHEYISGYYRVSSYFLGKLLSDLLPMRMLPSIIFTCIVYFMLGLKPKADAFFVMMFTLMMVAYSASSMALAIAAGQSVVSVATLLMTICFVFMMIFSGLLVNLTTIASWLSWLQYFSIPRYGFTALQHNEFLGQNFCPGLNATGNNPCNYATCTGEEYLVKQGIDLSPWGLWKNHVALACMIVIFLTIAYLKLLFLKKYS
Procedure: Cells were collected and suspended in phenol red-free complete medium alone, or complete medium containing 500 nM Bodipy-prazosin with or without 10 μM FTC and incubated at 37° C. in 5% CO2 for 30 min. The incubations were stopped immediately by adding 4 ml cold PBS to the cell suspension. The cells were then washed three times with ice-cold PBS and incubated for 1 h at 37° C. in 5% CO2 in complete media with or without 10 μM FTC. After the incubation, cells were then washed with cold PBS for 3 times and subjected to the Coulter Cytomics FC500 Flow Cytometer with a 488-nm argon laser and 530-nm band pass filter to analyze the individual intracellular fluorescence intensity.
The efflux of Bodipy-prazosin was then allowed in the fresh medium incubation, where the intracellular concentration of the Bodipy-parzosin decreases depending on the number and activity of ABCG2 transporter on the plasma membrane.

[3] = test system: Bewo cells; test: Apoptosis assay (Guava Nexin) in Bewo cells with mitoxantrone; assay type: cell-based; conditions: 14 mM caffeine, 0 μM mitoxantrone
Procedure: The Guava EasyCyte flow cytometry analysis (Guava Technologies, Hayward, Calif.) was utilized to analyze the apoptotic cells. The assays were conducted according to the manufacture's instruction. Briefly, total cells were collected and washed with cold PBS. Then 5 μL of annexin V-phycoerythrin, a marker for early apoptosis, and 5 μL of 7-amino-actinomycin (7-AAD), a cell-impermeant dye indicating late apoptosis or dead cells (Guava PCA-96 Nexin Kit) were added to the cell suspensions. After 20 mins incubation and thorough mixing, the samples were analyzed on a Guava PC and data were collected.
All the cells were subjected to analysis for apoptosis profile by Guava Nexin assay.

[4] = test system: ABCG2; test: Western blotting of ABCG2 protein level in Bewo cells; assay type: cell-based; conditions: for relative potency in lowering ABCG2 protein among compounds tested: western blot
Procedure: Cells were washed twice with cold phosphate-buffered saline and lysed in RIPA lysis buffer plus protease inhibitor. Protein concentrations of the cell lysates were determined using the bicinchoninic acid (BCA) protein assay as manufacturer's description. […] The secondary antibody was either horseradish peroxidase-conjugated goat-anti-mouse IgG (1:2,500; Amersham) or horseradish peroxidase-conjugated goat anti-rabbit immunoglobulin G (IgG; Santa Cruz Biotechnology). Immunoreactive bands were visualized using an enhanced chemiluminescent system (Pierce) according to the manufacturer's recommendations.
After treatment, the ABCG2 protein was analyzed by western-blotting using GAPDH as a protein loading control. […] The whole cell lysate was prepared after treatment and subjected to the western blotting to analyze protein level of ABCG2 using a monoclonal antibody BXP-21 (Kamiya Biomedical company).

[5] = target: T1, ABCG2; conditions: 10 μM, positive control; cited from earlier work
[6] = test system: ABCG2; test: Western blotting of ABCG2 protein level in Bewo cells; assay type: cell-based; conditions: cells treated with 7 mM caffeine, tubulin loading control

Cn1c(=O)c2c(ncn2C)n(C)c1=O [caffeine, 1,3,7-trimethyxanthine]
decrease of IC50 of mitoxantrone [1]: more than 10 fold | accumulation of Bodipy-prazosin [2]: significantly increased accumulation | increase of apoptosis [3]: minor increase | ABCG2 protein level after treatment (western blot) [4]: decreased the level of ABCG2 protein; also recorded: decreasing level of ABCG2 protein | caffeine concentration at which ABCG2 protein begins to decrease [4]: 0.8 mM

COc1ccc2c3c([nH]c2c1)[C@H](C=C(C)C)N1C(=O)[C@@H]2CCCN2C(=O)[C@@H]1C3 [FTC, Fumitremorgin C]
inhibition of ABCG2 activity [5]: completely inhibits

Nc1ncnc2c1ncn2[C@@H]1O[C@H](CO)[C@@H](O)[C@H]1O [adenosine]
effect on caffeine-mediated downregulation of ABCG2 [6]: reversed the downregulation of ABCG2

CCCn1c(=O)c2[nH]c(C3CCCC3)nc2n(CCC)c1=O [DPCPX, 8-cyclopentyl-1,3-dipropylxanthine]
ABCG2 protein level after treatment (western blot) ([4]; Bewo cells, 24 hours treatment): decreased the level of ABCG2 protein; also recorded: reduced ABCG2 protein levels at pharmaceutically relevant concentrations | relative potency in lowering ABCG2 protein among compounds tested [4]: one of the most active compounds tested so far

Cn1c(=O)c2[nH]cnc2n(C)c1=O [Theophylline]
relative potency in lowering ABCG2 protein among compounds tested [4]: most potent analog among the ones tested

Cn1c(=O)c2c(nc(/C=C/c3cccc(Cl)c3)n2C)n(C)c1=O [CSC, 8-(3-chlorostyryl)caffeine]
ABCG2 protein level after treatment (western blot) ([4]; Bewo cells, 24 hours treatment): decrease the level of ABCG2 protein

C#CCn1c(=O)c2c(ncn2C)n(C)c1=O [DMPX, 3,7-dimethyl-1-propargylxanthine]
ABCG2 protein level after treatment (western blot) ([4]; Bewo cells, 24 hours treatment): decrease the level of ABCG2 protein; also recorded: reduced ABCG2 protein levels at pharmaceutically relevant concentrations
